The values below come from US20040072851A1, “Medicinal compositions for treating lower uropathy” (priority 2001, published 2004).

The subject of assay [1] is patients suffering from lower urinary tract symptoms. Description: Clinical test to patients suffering from lower urinary tract symptoms (twelve-week test). In kind it is in vivo, human. The method, then:
A clinical test was carried out under the following conditions using the patients suffering from lower urinary tract symptoms. Subjects: eighteen patients diagnosed as lower urinary tract symptoms, i.e. urinary disturbance without clear organic or neurological abnormality in lower urinary tract (15 males and 3 female, age: 57.2±14.2). Test drug and administering method: One capsule containing 0.2 mg of tamsulosin hydrochloride was orally administered once daily after breakfast for four weeks and, after that, the dose after 4 weeks was controlled in consideration of the following criterion, and the dose was orally administered once daily after breakfast. [table] Test period: twelve weeks (84 days)(4 weeks (28 days) for 8 males) Observed items: Evaluations and measurements were made for the following items before and after the administration. (1) Total Score for Subjective Symptoms Total scores for the following <1>˜<7>before and after the administration were obtained in the same way as in Test Example 1. <1>Feel of residual urine, <2>Urination within two hours, <3>Break of urinary stream, <4>Urgency, <5>Force of urinary stream, <6>Straining upon urination and <7>Frequency of urination at night. (2) QOL Index “How do you think if the present urinating state continues in future as well?” (3) Test on Functions <1>maximum urinary stream rate <2>average urinary stream rate

Assay [2] has the same test system. Description: Clinical test to patients suffering from lower urinary tract symptoms (four-week test). In kind it is in vivo, human. Conditions: for Total score for subjective symptoms after the test: 0.2 mg capsule orally once daily after breakfast; for Changing Rate (%) of total score for subjective symptoms: 0.2 mg capsule orally once daily, after vs before the test. The method, then:
A clinical test was carried out under the following conditions using the patients suffering from lower urinary tract symptoms. (cf. Chapter 1: Indexes for Evaluation of Prostatic Hypertrophy in “Guideline for Clinical Test for Urinary Disturbance” published by Iyaku Tosho Shuppan) Subjects: four patients diagnosed as lower urinary tract symptoms, i.e. urinary disturbance without clear organic or neurological abnormality in lower urinary tract (3 males and 1 female). Test drug and administering method: One capsule containing 0.2 mg of tamsulosin hydrochloride was orally administered once daily after breakfast. Test period: four weeks (28 days) Observed items: Evaluations and measurements were made for the following items before and after the administration. (1) Total Score for Subjective Symptoms Questioning was done to the patients for the following items and the total score was obtained. (2) QOL Index With regard to an index for quality of life (QOL), a questioning that “How do you think if the present urinary condition continues in future as well?” was done as a total diagnosis concerning the urinary disturbance and any of the following evaluations was collected.

For another assay, the system named is neurogenic bladder. Conditions: applicant's earlier filing PCT/JP99/03343; cited from earlier work.
Setting [3] is: Female (n = 3), after 4 week, 0.2 mg/day orally.
The mark [4] stands for this setting: Female (n = 3), after 12 week, 0.2 mg/day for 4 weeks, then 0.2 or 0.4 mg/day orally.
Setting [5] is: Total (n = 10), after 12 week, 0.2 mg/day for 4 weeks, then 0.2 or 0.4 mg/day orally.
[6] abbreviates: Total (n = 18), after 4 week, 0.2 mg/day orally.
The mark [7] stands for this setting: male (n = 7), after 12 week, 0.2 mg/day for 4 weeks, then 0.2 or 0.4 mg/day orally.
Where [8] appears, read: male (n = 15), after 4 week, 0.2 mg/day orally.
[9] abbreviates: avg. of four patients, four weeks.

Structures can show the parent of a compound that is named as a salt.

As to `CCOc1ccccc1OCCN[C@H](C)Cc1ccc(OC)c(S(N)(=O)=O)c1` [tamsulosin hydrochloride], the “Changing Amt of Average urinary stream rate” value in assay [1] (setting [3]) is “+2.2 ± 1.8 ml/s”; in assay [1] (setting [4]) it was “+2.1 ± 2.8 ml/s”; in assay [1] (setting [5]), “+3.8 ± 2.5 ml/s”; in assay [1] (setting [6]), “+2.0 ± 3.3 ml/s”; in assay [1] (setting [7]), “+4.6 ± 2.2 ml/s”; in assay [1] (setting [8]), “+1.9 ± 3.6 ml/s”. The “Changing Amt of Maximum urinary stream rate” value in assay [1] (setting [3]) is on record as “+3.8 ± 1.9 ml/s”; in assay [1] (setting [4]) it was “+6.2 ± 6.0 ml/s”; in assay [1] (setting [5]), “+7.3 ± 4.6 ml/s”; in assay [1] (setting [6]), “+3.1 ± 6.7 ml/s”; in assay [1] (setting [7]) it was “+7.8 ± 4.3 ml/s”; in assay [1] (setting [8]), “+2.9 ± 7.4 ml/s”. Besides, the “Changing Amt of QOL Index” value in assay [1] (setting [3]) is −1.3 ± 1.2; in assay [1] (setting [4]), −3.0 ± 1.7; in assay [1] (setting [5]), −2.9 ± 1.7; in assay [1] (setting [6]), −1.6 ± 1.7; in assay [1] (setting [7]) it was −2.9 ± 1.9; in assay [1] (setting [8]) it was −1.6 ± 1.8. For the same compound, the “Changing Rate of Total score for subjective symptoms” value in assay [1] (setting [3]) is given as −30.5 ± 16.9%; in assay [1] (setting [4]), −37.4 ± 26.8%; in assay [1] (setting [5]), −44.6 ± 32.1%; in assay [1] (setting [6]) it was −40.9 ± 25.2%; in assay [1] (setting [7]), −47.0 ± 35.6%; in assay [1] (setting [8]), −43.0 ± 26.5%. In addition, the “effective rate (Degree of Improvement as a whole is more than "Useful")” value in assay [1] (after 12 weeks, decided by Guideline for Clinical Test for Urinary Disturbance) was found to be 70.0%. Besides, the “Overall conclusion on efficacy (total score for subjective symptom, QOL index, test on functions)” value in assay [1] (twelve-week test) is listed as “confirmed to be effective as a therapeutic agent for lower urinary tract symptoms”. In addition, the “Total score for subjective symptoms after the test” value in assay [2] (setting [9]) is given as 13.3; in assay [2] (patient four, four weeks), 13; in assay [2] (patient one, four weeks), 11; in assay [2] (patient three, four weeks), 20; in assay [2] (patient two, four weeks) it was 9. Besides, the “Changing Rate (%) of total score for subjective symptoms” value is reported as −40.8% in assay [2] (setting [9]); −48.0% in assay [2] (patient four, four weeks); −26.7% in assay [2] (patient one, four weeks); −23.1% in assay [2] (patient three, four weeks); −65.4% in assay [2] (patient two, four weeks). Moreover, the “Improvement in QOL index” value in assay [2] (four patients, average, after vs before administration, four weeks) is “improvement of one point in average”. Moreover, in assay [2] (four patients, 0.2 mg orally once daily, four weeks, scale 0 (quite satisfactory) to 6 (quite unsatisfactory), before administration 4.8), the “QOL index, mean value after the administration” value was 3.8. Besides, in assay [2] (four-week test, 0.2 mg orally once daily), the “Overall conclusion on efficacy (total score for subjective symptom, QOL index)” value is listed as “confirmed to be effective as a therapeutic agent for lower urinary tract symptoms”.
Turning to `CCOc1ccccc1OCCN[C@H](C)Cc1ccc(OC)c(S(N)(=O)=O)c1` [tamsulosin], the “Clinical efficacy for the therapy of neurogenic bladder” value with neurogenic bladder was “clinically effectively for the therapy of neurogenic bladder”.
